We go through 9 compounds from patent US20260022143A1, “Cyclic Peptide Inhibitors of IL-23” (JANSSEN PHARMACEUTICA NV, priority 2022, published 2026).

Starred links: 1 amine or outer side, 2 acyl side, 3 side chain; linkers in the order of their positions; H or OH if unused. Positions of bridges follow the written chain, without caps; N, C: chain ends. Non-standard residues stand in square brackets, D forms with d. Residues, ends and D or L forms follow the SMILES beside them. *: point of attachment. Trp(7-(3-AcNH-Ph)) = CC(=O)Nc1cccc(-c2cccc3c(C[C@H](N)C(=O)O)c[nH]c23)c1; X36 = C[N+]1(CCCc2cn(-c3ccc(C[C@H](N[*:1])C(=O)[*:2])cc3)nn2)CCOCC1; X16 = C[N+](C)(C)Cc1cn(-c2ccc(C[C@H](N[*:1])C(=O)[*:2])cc2)nn1; Me3N+(CH2)2O(CH2)2O(CH2)2CO = C[N+](C)(C)CCOCCOCCC(=O)*; Trp(7-Me) = Cc1cccc2c(C[C@H](N)C(=O)O)c[nH]c12; dLys(Me3) = C[N+](C)(C)CCCC[C@@H](N)C(=O)O; 2Nal = N[C@@H](Cc1ccc2ccccc2c1)C(=O)O; AEF = NCCOc1ccc(C[C@H](N)C(=O)O)cc1; X22 = CN1CC[N+](C)(CCOCCOCC*)CC1; 3Pal = N[C@@H](Cc1cccnc1)C(=O)O; Pen = CC(C)(S)[C@H](N)C(=O)O; Thp = NC1(C(=O)O)CCOCC1; X17 = C[N+]1(CC*)CCOCC1; X3 = C[N+](C)(C)CCCCC*; Sar = CNCC(=O)O

One data set has as its target T1, IL-23R (Homo sapiens, UniProt Q5VWK5).
T1 construct: host or cells: HEK293
T1 sequence (Q5VWK5 24-629): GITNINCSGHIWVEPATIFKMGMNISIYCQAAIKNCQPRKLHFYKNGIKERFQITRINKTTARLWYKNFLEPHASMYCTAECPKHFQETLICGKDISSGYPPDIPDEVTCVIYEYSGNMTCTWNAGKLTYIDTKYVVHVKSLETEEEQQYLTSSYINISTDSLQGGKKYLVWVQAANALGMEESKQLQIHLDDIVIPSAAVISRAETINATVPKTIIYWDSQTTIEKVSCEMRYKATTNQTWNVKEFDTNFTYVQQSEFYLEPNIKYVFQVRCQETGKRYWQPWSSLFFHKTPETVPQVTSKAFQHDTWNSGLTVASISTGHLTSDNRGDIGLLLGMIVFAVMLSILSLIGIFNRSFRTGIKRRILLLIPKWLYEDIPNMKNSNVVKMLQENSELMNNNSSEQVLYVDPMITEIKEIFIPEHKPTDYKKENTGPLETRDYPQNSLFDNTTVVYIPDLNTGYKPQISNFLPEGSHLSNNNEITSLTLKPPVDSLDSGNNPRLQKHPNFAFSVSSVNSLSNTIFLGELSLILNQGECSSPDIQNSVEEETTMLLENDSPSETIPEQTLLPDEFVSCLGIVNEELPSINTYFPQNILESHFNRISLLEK
The data set can be described thus: IL23R Reporter Assay. Particulars: HEK293 cells containing IL-23R, IL-12RP1 and STAT-inducible firefly luciferase reporter; 10 ng/mL IL-23 (EC90); 5 h at 37° C.; read-out: IL23R Reporter Assay. It counts as cell-based. Background: Reporter assays use an easily measured gene product as a stand-in for the process of interest.

Data set [1] can be described thus: Exposed Polar Surface Area (EPSA). It counts as physicochemical. As to conditions: SFC on Chirex 3014 column; sample 1 mM DMSO stock; read-out: EPSA. The procedure, abridged: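 SFC retention on a Chirex 3014 (S-valine/(R)-1-(α-naphthyl)ethylamine) column at 35 °C, 4 mL/min, 14 MPa outlet, 5–60% methanol/20 mM ammonium formate gradient in CO2. Retention times converted to EPSA (Å²) via linear calibration with 8 standards; samples from 1 mM DMSO stock, run in duplicate.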

Take `CC(=O)NCCCC[C@@H]1NC(=O)[C@H](Cc2c[nH]c3c(C)cccc23)NC(=O)[C@H]([C@@H](C)O)NC(=O)[C@H](CC(N)=O)NC(=O)[C@@H](NC(C)=O)C(C)(C)SSC(C)(C)[C@@H](C(=O)N[C@@H](Cc2ccc(OCCCCC[N+](C)(C)C)cc2)C(=O)N[C@@H](Cc2ccc3ccccc3c2)C(=O)NC2(C(=O)N[C@@H](CCC(=O)O)C(=O)N[C@@H](CC(N)=O)C(=O)N[C@@H](Cc3cccnc3)C(=O)N(C)CC(N)=O)CCOCC2)NC1=O` [compound 430, MeCO-Pen(3)-N-T-7MeW-K(Ac)-Pen(3)-TMAPF-2Nal-THP-E-N-3Pya-Sar-CONH2] (Ac-[Pen]NT[Trp(7-Me)]K(Ac)[Pen]Y(X3)[2Nal][Thp]EN[3Pal][Sar]-NH2; disulfide 1-6 (inferred)): on IL-23R, the IC50 amounted to 2.6 nM. Further, the EPSA in data set [1] worked out at 167 A^2.

As to `CC(=O)NCCCC[C@@H]1NC(=O)[C@H](Cc2c[nH]c3c(C)cccc23)NC(=O)[C@H]([C@@H](C)O)NC(=O)[C@H](CC(N)=O)NC(=O)[C@@H](NC(C)=O)C(C)(C)SSC(C)(C)[C@@H](C(=O)N[C@@H](Cc2ccc(OCCOCCOCC[N+]3(C)CCN(C)CC3)cc2)C(=O)N[C@@H](Cc2ccc3ccccc3c2)C(=O)NC2(C(=O)N[C@@H](CCCCNC(C)=O)C(=O)N[C@@H](CC(N)=O)C(=O)N[C@@H](Cc3cccnc3)C(=O)N(C)CC(N)=O)CCOCC2)NC1=O` [compound 434] (Ac-[Pen]NT[Trp(7-Me)]K(Ac)[Pen]Y(X22)[2Nal][Thp]K(Ac)N[3Pal][Sar]-NH2; disulfide 1-6 (inferred)), at IL-23R, the IC50 was 3.1 nM. Also, in data set [1], the EPSA worked out at 156 A^2.

Turning to `CC(=O)NCCCC[C@@H]1NC(=O)[C@H](Cc2c[nH]c3c(C)cccc23)NC(=O)[C@H]([C@@H](C)O)NC(=O)[C@H](CC(N)=O)NC(=O)[C@@H](NC(=O)[C@@H](CCCNC(=N)N)NC(C)=O)C(C)(C)SSC(C)(C)[C@@H](C(=O)N[C@@H](Cc2ccc(OCC[N+]3(C)CCOCC3)cc2)C(=O)N[C@@H](Cc2ccc3ccccc3c2)C(=O)NC2(C(=O)N[C@@H](CCC(=O)O)C(=O)N[C@@H](CC(N)=O)C(=O)N[C@@H](Cc3cccnc3)C(=O)N(C)CC(N)=O)CCOCC2)NC1=O` [compound 437] (Ac-[dR][Pen]NT[Trp(7-Me)]K(Ac)[Pen]Y(X17)[2Nal][Thp]EN[3Pal][Sar]-NH2; disulfide 2-7 (inferred)), at IL-23R, the IC50 amounted to 1.2 nM. The EPSA in data set [1] is 186 A^2.

For the compound `CC(=O)NCCCC[C@@H]1NC(=O)[C@H](Cc2c[nH]c3c(C)cccc23)NC(=O)[C@H]([C@@H](C)O)NC(=O)[C@H](CC(N)=O)NC(=O)[C@@H](NC(=O)CCOCCOCC[N+](C)(C)C)C(C)(C)SSC(C)(C)[C@@H](C(=O)N[C@@H](Cc2ccc(-n3cc(C[N+](C)(C)C)nn3)cc2)C(=O)N[C@@H](Cc2ccc3ccccc3c2)C(=O)NC2(C(=O)N[C@@H](CCCCNC(C)=O)C(=O)N[C@@H](CC(N)=O)C(=O)N[C@@H](Cc3cccnc3)C(=O)N(C)CC(N)=O)CCOCC2)NC1=O` [compound 438, cPEG3aCO-Pen(3)-N-T-7MeW-K(Ac)-Pen(3)-F(4TzlTMA1)-2Nal-THP-K(Ac)-N-3Pya-Sar-CONH2] ({Me3N+(CH2)2O(CH2)2O(CH2)2CO}-[Pen]NT[Trp(7-Me)]K(Ac)[Pen][X16][2Nal][Thp]K(Ac)N[3Pal][Sar]-NH2; disulfide 1-6), at IL-23R, the IC50 came out at 3.4 nM. The EPSA in data set [1] turned out to be 167 A^2.

For the compound `CC(=O)NCCCC[C@@H]1NC(=O)[C@H](Cc2c[nH]c3c(C)cccc23)NC(=O)[C@H]([C@@H](C)O)NC(=O)[C@H](CC(N)=O)NC(=O)[C@@H](NC(C)=O)C(C)(C)SSC(C)(C)[C@@H](C(=O)N[C@@H](Cc2ccc(-n3cc(CCC[N+]4(C)CCOCC4)nn3)cc2)C(=O)N[C@@H](Cc2ccc3ccccc3c2)C(=O)NC2(C(=O)N[C@@H](CCCCNC(C)=O)C(=O)N[C@@H](CC(N)=O)C(=O)N[C@@H](Cc3cccnc3)C(=O)N(C)CC(N)=O)CCOCC2)NC1=O` [compound 440] (Ac-[Pen]NT[Trp(7-Me)]K(Ac)[Pen][X36][2Nal][Thp]K(Ac)N[3Pal][Sar]-NH2; disulfide 1-6 (inferred)), on IL-23R, the IC50 is 2 nM. Besides, the EPSA in data set [1] worked out at 163 A^2.

With `CC(=O)NCCCC[C@@H]1NC(=O)[C@H](Cc2c[nH]c3c(-c4cccc(NC(C)=O)c4)cccc23)NC(=O)[C@H]([C@@H](C)O)NC(=O)[C@H](CC(N)=O)NC(=O)[C@@H](NC(=O)CCOCCOCC[N+](C)(C)C)C(C)(C)SSC(C)(C)[C@@H](C(=O)N[C@@H](Cc2ccc(OCCN)cc2)C(=O)N[C@@H](Cc2ccc3ccccc3c2)C(=O)NC2(C(=O)N[C@@H](CCC(=O)O)C(=O)N[C@@H](CC(N)=O)C(=O)N[C@@H](Cc3cccnc3)C(=O)N(C)CC(N)=O)CCOCC2)NC1=O` [compound 443, cPEG3aCO-Pen(3)-N-T-7(3NAcPh)W-K(Ac)-Pen(3)-AEF-2Nal-THP-E-N-3Pya-Sar-CONH2] ({Me3N+(CH2)2O(CH2)2O(CH2)2CO}-[Pen]NT[Trp(7-(3-AcNH-Ph))]K(Ac)[Pen][AEF][2Nal][Thp]EN[3Pal][Sar]-NH2; disulfide 1-6), the IC50 at IL-23R was found to be 2.1 nM. For the same compound, the EPSA in data set [1] is 191 A^2.

In the case of `CC(=O)NCCCC[C@@H]1NC(=O)[C@H](Cc2c[nH]c3c(C)cccc23)NC(=O)[C@H]([C@@H](C)O)NC(=O)[C@H](CC(N)=O)NC(=O)[C@@H](NC(=O)[C@@H](CCCC[N+](C)(C)C)NC(C)=O)C(C)(C)SSC(C)(C)[C@@H](C(=O)N[C@@H](Cc2ccc(OCCN)cc2)C(=O)N[C@@H](Cc2ccc3ccccc3c2)C(=O)NC2(C(=O)N[C@@H](CCCCNC(C)=O)C(=O)N[C@@H](CC(N)=O)C(=O)N[C@@H](Cc3cccnc3)C(=O)N(C)CC(N)=O)CCOCC2)NC1=O` [compound 447] (Ac-[dLys(Me3)][Pen]NT[Trp(7-Me)]K(Ac)[Pen][AEF][2Nal][Thp]K(Ac)N[3Pal][Sar]-NH2; disulfide 2-7 (inferred)), the IC50 on IL-23R came out at 2 nM. Besides, the EPSA in data set [1] was 171 A^2.

As to `CC(=O)NCCCC[C@@H]1NC(=O)[C@H](Cc2c[nH]c3c(-c4cccc(NC(C)=O)c4)cccc23)NC(=O)[C@H]([C@@H](C)O)NC(=O)[C@H](CC(N)=O)NC(=O)[C@@H](NC(=O)[C@@H](CCCC[N+](C)(C)C)NC(C)=O)C(C)(C)SSC(C)(C)[C@@H](C(=O)N[C@@H](Cc2ccc(OCCCCC[N+](C)(C)C)cc2)C(=O)N[C@@H](Cc2ccc3ccccc3c2)C(=O)NC2(C(=O)N[C@@H](CCC(=O)O)C(=O)N[C@@H](CC(N)=O)C(=O)N[C@@H](Cc3cccnc3)C(=O)N(C)CC(N)=O)CCOCC2)NC1=O` [compound 448, MeCO-k(Me)3-Pen(3)-N-T-7(3NAcPh)W-K(Ac)-Pen(3)-TMAPF-2Nal-THP-E-N-3Pya-Sar-CONH2] (Ac-[dLys(Me3)][Pen]NT[Trp(7-(3-AcNH-Ph))]K(Ac)[Pen]Y(X3)[2Nal][Thp]EN[3Pal][Sar]-NH2; disulfide 2-7), the IC50 at IL-23R amounted to 2 nM. For the same compound, in data set [1], the EPSA is 176 A^2.

Take `CC(=O)NCCCC[C@@H]1NC(=O)[C@H](Cc2c[nH]c3c(-c4cccc(NC(C)=O)c4)cccc23)NC(=O)[C@H]([C@@H](C)O)NC(=O)[C@H](CC(N)=O)NC(=O)[C@@H](NC(C)=O)C(C)(C)SSC(C)(C)[C@@H](C(=O)N[C@@H](Cc2ccc(OCCCCC[N+](C)(C)C)cc2)C(=O)N[C@@H](Cc2ccc3ccccc3c2)C(=O)NC2(C(=O)N[C@@H](CCC(=O)O)C(=O)N[C@@H](CC(N)=O)C(=O)N[C@@H](Cc3cccnc3)C(=O)N(C)CC(N)=O)CCOCC2)NC1=O` [compound 451, MeCO-Pen(3)-N-T-7(3NAcPh)W-K(Ac)-Pen(3)-TMAPF-2Nal-THP-E-N-3Pya-Sar-CONH2] (Ac-[Pen]NT[Trp(7-(3-AcNH-Ph))]K(Ac)[Pen]Y(X3)[2Nal][Thp]EN[3Pal][Sar]-NH2; disulfide 1-6): at IL-23R, the IC50 was determined as 1.5 nM. Further, the EPSA in data set [1] was found to be 172 A^2.
